Experimental findings from US6630481B2, “Viologen linked acridine based molecule and process for the preparation thereof” (Council of Scientific and Industrial Research of India, priority 2001, dated 2003) are described below.

The subject of one test is PM2 DNA. As to the kind of experiment: DNA relaxation assay: photoactivated cleavage of plasmid DNA with repair endonucleases. It is filed as biochemical. To be noted: 360 nm light; for damage sensitive to FPG protein with increase in the time of irradiation: 0° C., FIG. 5 and FIG. 6; for generation of single strand breaks (SSB) with irradiation time: irradiation for 30 min. The source says: Cleavage of plasmid DNA was followed by monitoring the conversion of supercoiled (Form I) to open circular relaxed (Form II) and linear (Form III). Plasmid DNA cleavage is a very sensitive technique and when combined with several repair endonucleases, it can serve as a kind of fingerprint of the species directly responsible for the damage. Induction of one single strand break (SSB) by a compound converts Form I to Form II and the quantification of which indicates its efficiency of DNA cleavage. A DNA relaxation assay was used to quantify SSB and endonuclease-sensitive modifications (Epe, B.; Helger, J.; Wild, D. Carcinogenesis 1989, 10, 2019 and Epe, B.; Mftzel, P.; Adam, W. Chem. Biol. Interactions 1988, 67, 149). This assay makes use of the fact that Form I when converted by either a single strand break (SSB) or the incision by a repair endonuclease leads to Form II, which migrates separately in agarose gel electrophoresis.
Phosphate-buffered (pH 7.0), air-saturated solutions of PM2 DNA (10 μg/mL) at 0° C. were irradiated with 360 nm near-UV irradiation in the presence of various concentrations of acridine-viologen bifunctional molecules represented by compound of formula 1a and 1b (wherein Y=—(CH2)n, wherein n=1-11; R=—MV^2+—(CH2)m—CH32X^⊖ or —Pyr^2+—(CH2)m—CH32X^⊖ and wherein Y=—(CH2)n, wherein n=1-11; R=—MV^2+—(CH2)m—Acr2X^⊖ or —Pyr^2+—(CH2)m—Acr2X^⊖ respectively). Subsequently, the DNA was analyzed for the following types of modifications: (i) DNA single and double strand breaks; (ii) sites of base loss (AP sites) recognized by exonuclease III; (iii) base modifications plus AP sites sensitive to the T4 endonuclease V; (iv) base modifications plus AP sites sensitive to the endonuclease III and (v) base modifications plus AP sites sensitive to formamidopyrimidine-DNA glycosylase (FPG protein).

The subject of a further test is calf thymus DNA. As to the kind of experiment: DNA binding affinity (association constants) by absorption and fluorescence. To be noted: buffer containing 1 mM EDTA. The method, then: DNA binding efficiency. DNA binding affinities of acridine-viologen bifunctional molecules represented by compound of formula 1a and 1d were analyzed using calf thymus DNA, in NaCl buffer at different salt concentrations (2 mM and 100 mM). Test solutions containing different concentrations of calf thymus DNA in NaCl buffer were incubated at room temperature for one hour to complete the complexation and were analyzed using absorption and fluorescence techniques. […] The binding constants of viologen linked acridines with DNA were determined according to the reported procedures. References may be made to Peacocke, A. R.; Skerrett, J. N. H. Trans. Faraday Soc. 1956, 52, 261; McGhee, J. D.; von Hippel, P. H. J. Mol. Biol. 1974, 86, 469; Scatchard, G. Ann. N.Y. Acad. Sci 1949, 51, 660; Adam, W.; Cadet, J.; Dall'Acqua, F.; Epe, B.; Ramaiah, D.; Saha-Moller, C. R. Angew. Chem. Int. Ed. Engl. 1995, 34, 107). […] Further fluorescence lifetimes of these compounds were also examined in presence and absence of DNA.

For `CCCC[n+]1ccc(-c2cc[n+](CCCCCCCCCCCc3c4ccccc4nc4ccccc34)cc2)cc1.[Br-].[Br-]` [1-[11-(acridin-9-yl)undecyl]-1′-butyl-4,4′-bipyridinium dibromide], in the test with PM2 DNA, the “damage sensitive to FPG protein with increase in the time of irradiation” value is listed as “increases” and the “generation of single strand breaks (SSB) with irradiation time” value is reported as “No significant increase”. In addition, the “K (DNA association constant)” value in the test on calf thymus DNA (2 mM NaCl) was determined as 5.24e+06 M⁻¹. For the same compound, in the test on calf thymus DNA (100 mM NaCl), the “K (DNA association constant)” value came out at 164000 M⁻¹.
The corresponding values for `CCCC[n+]1ccc(-c2cc[n+](Cc3c4ccccc4nc4ccccc34)cc2)cc1.[Br-].[Br-]` [1-[(acridin-9-yl)methyl]-1′-butyl-4,4′-bipyridinium dibromide] are “increases”, “No significant increase”, 924000 M⁻¹ and 101000 M⁻¹.
Take “bis-1,1′-[(acridin-9-yl)methyl]-4,4′-bipyridinium dibromide”: the “K (DNA association constant)” value in the test with calf thymus DNA (2 mM NaCl) was found to be 1.3e+06 M⁻¹; with calf thymus DNA (100 mM NaCl), 390000 M⁻¹.
